Earlier results in patent US12551470B2, “Metabolism enhancing compositions” (Red Mountain Med Spa, LLC, priority 2022, dated 2026).

What was measured:
[1] = compared to the other phytochemicals (11 phytochemicals, Tomer et al., J. Med. Food 2007)
[2] = compared to the other phytochemicals (11 phytochemicals, Tomer et al., J. Med. Food 2007); remark: listed apart in the source

## O=C(O)CCCC[C@@H]1CCSS1 [α-lipoic acid, (R)-5-(1,2-dithiolan-3-yl)pentanoic acid]
[1]
  ORAC values: low
[2]
  TOSC values: high
